Data set [1] deals with E. coli ATCC 25922. The data set is described as follows: MIC, standard microbroth dilution (NCCLS). The following applies: Escherichia coli, read-out: Antibacterial activity (MIC). In kind it is cell-based. Here is the method: (§1) The compounds of the present invention were tested for minimum inhibitory concentrations (MICs) against the bacteria listed in Table-1 according to the standard microbroth dilution method as described in a NCCLS document. The minimum inhibitory concentrations wer expressed in μg/ml. The test bacteria of 5×10^5 CFU/ml each were subjected to serial dilutions of the test material under aerobic conditions at 35° C. for 18 hours using Mueller Hinton broth. After incubation, the first concentration of wells to show a complete growth inhibition was considered as the MIC.

The subject of data set [2] is E. faecalis 2322 VRE. The data set is described as follows: MIC, standard microbroth dilution (NCCLS). In kind it is cell-based. The following applies: Enterococcus faecalis, read-out: Antibacterial activity (MIC). Here is the method: as §1
The subject of data set [3] is E. faecalis 2353 VSE. As to the kind of experiment: MIC, standard microbroth dilution (NCCLS). In kind it is cell-based. The following applies: Enterococcus faecalis, read-out: Antibacterial activity (MIC). The method, then:
as §1

Data set [4] has as its system S. aureus ATCC 29213. The data set is described as follows: MIC, standard microbroth dilution (NCCLS). In kind it is cell-based. The conditions noted are these: Staphylococcus aureus, read-out: Antibacterial activity (MIC). The method, then: as §1
For data set [5], the system named is S. aureus TN1152MRSA. The data set is described as follows: MIC, standard microbroth dilution (NCCLS). In kind it is cell-based. The following applies: Staphylococcus aureus, read-out: Antibacterial activity (MIC). Here is the method: as §1
The subject of data set [6] is S. epdermidis ATCC1228. As to the kind of experiment: MIC, standard microbroth dilution (NCCLS). The following applies: read-out: Antibacterial activity (MIC). In kind it is cell-based. The method, then:
as §1

Data set [7] is described as follows: Solubility characteristics of isolated Microsphaeropsin B. In kind it is physicochemical.
The mark [8] stands for this setting: ATCC25922, E. coli ATCC 25922, 5×10^5 CFU/ml, Mueller Hinton broth, aerobic, 35° C., 18 hours.
[9] abbreviates: E. faecalis 2322 VRE, 5×10^5 CFU/ml, Mueller Hinton broth, aerobic, 35° C., 18 hours.
Where [10] appears, read: E. faecalis 2353 VSE, 5×10^5 CFU/ml, Mueller Hinton broth, aerobic, 35° C., 18 hours.
Setting [11] is: ATCC29213, S. aureus ATCC 29213, 5×10^5 CFU/ml, Mueller Hinton broth, aerobic, 35° C., 18 hours.
Where [12] appears, read: S. aureus TN1152MRSA, 5×10^5 CFU/ml, Mueller Hinton broth, aerobic, 35° C., 18 hours.
Setting [13] is: S. epdermidis ATCC1228, 5×10^5 CFU/ml, Mueller Hinton broth, aerobic, 35° C., 18 hours.

Experimental findings from US20030166707A1, “Microsphaeropsin B as novel antibacterial agent, process for producing the same and pharmaceutical composition containing thereof” (priority 2001, published 2003) are described below.

Converted amounts (≈) assume the structure as drawn. Where two headings read alike, the source gives them in different places.

For the compound `CC1(C)S[C@@H]2[C@H](NC(=O)[C@H](N)c3ccccc3)C(=O)N2[C@H]1C(=O)O` [Ampicillin], the MIC in data set [1] (setting [8]) came to 2 µg/mL (≈ 5.72 µM); in data set [2] (setting [9]), 32 µg/mL (≈ 91.6 µM); in data set [3] (setting [10]), 0.25 µg/mL (≈ 0.715 µM); in data set [4] (setting [11]) it was 0.062 µg/mL (≈ 0.177 µM); in data set [5] (setting [12]) it was 8 µg/mL (≈ 22.9 µM); in data set [6] (setting [13]), 16 µg/mL (≈ 45.8 µM).
In the case of `C/C=C/C=C/C1C=CC2CC(C)CCC2C1(C)C(=O)C1=C(O)C(C(C)O)NC1=O` (stereo not shown) [Microsphaeropsin B], the MIC in data set [1] (setting [8]) was > 32 µg/mL; in data set [2] (setting [9]), 2 µg/mL (≈ 5.01 µM); in data set [3] (setting [10]) it was 1 µg/mL (≈ 2.5 µM); in data set [4] (setting [11]), 0.5 µg/mL (≈ 1.25 µM); in data set [5] (setting [12]) it was 0.5 µg/mL (≈ 1.25 µM); in data set [6] (setting [13]), 1 µg/mL (≈ 2.5 µM). For the same compound, the “Behaviour on addition of water” value in data set [7] (dissolution in ethanol or dimethyl sulphoxide followed by addition of water) is recorded as “immediate precipitate formation”. Besides, the Solubility entry in data set [7] (in 1M sodium hydroxide solution), in data set [7] (in 5% sodium bicarbonate) and in data set [7] (in water) was “insoluble” throughout.
On to `CN[C@H](CC(C)C)C(=O)N[C@H]1C(=O)N[C@@H](CC(N)=O)C(=O)N[C@H]2C(=O)N[C@H]3C(=O)N[C@H](C(=O)N[C@H](C(=O)O)c4cc(O)cc(O)c4-c4cc3ccc4O)[C@H](O)c3ccc(c(Cl)c3)Oc3cc2cc(c3O[C@@H]2O[C@H](CO)[C@@H](O)[C@H](O)[C@H]2O[C@H]2C[C@](C)(N)[C@H](O)[C@H](C)O2)Oc2ccc(cc2Cl)[C@H]1O` [Vancomycin], for which the MIC was > 32 µg/mL in data set [1] (ATCC25922, 18 h); 16 µg/mL (≈ 11 µM) in data set [2] (VRE, 18 h); 0.25 µg/mL (≈ 0.173 µM) in data set [3] (2353VSE, 18 h); 0.5 µg/mL (≈ 0.345 µM) in data set [4] (ATCC29213, 18 h); 0.25 µg/mL (≈ 0.173 µM) in data set [5] (TN1152MRSA, 18 h); 0.5 µg/mL (≈ 0.345 µM) in data set [6] (18 h).
